This note sets out measurements from patent publication US11540516B2, “M-diamide compound and preparation method therefor and use thereof” (priority 2018, dated 2023).

Regarding `COC(c1cc(Br)c(NC(=O)c2cccc(N(CC3CC3)C(=O)c3ccc(C#N)cc3)c2F)c(C(F)(F)F)c1)(C(F)(F)F)C(F)(F)F` [Compound 24, N-(2-bromo-4-(1,1,1,3,3,3-hexafluoro-2-methoxypropan-2-yl)-6-(trifluoromethyl)phenyl)-3-(4-cyano-N-(cyclopropylmethyl)benzamido)-2-fluorobenzamide], the melting point (commonly the temperature of the solid-liquid transition) lay in the range of 152.3 to 153.5 °C.
With `CC(C1CC1)N(C(=O)c1ccc(S(C)(=O)=O)cc1)c1cccc(C(=O)Nc2c(Br)cc(C(F)(C(F)(F)F)C(F)(F)F)cc2C(F)(F)F)c1F` (stereo not shown) [Compound 77, N-(2-bromo-4-(perfluoropropan-2-yl)-6-(trifluoromethyl)phenyl)-3-(N-(1-cyclopropylethyl)-4-(methylsulfonyl)benzamido)-2-fluorobenzamide] the figure was 76 to 78.8 °C; with `COC(c1cc(Br)c(NC(=O)c2cccc(N(CC3CC3)C(=O)c3ccc(Cl)cc3)c2F)c(C(F)(F)F)c1)(C(F)(F)F)C(F)(F)F` [Compound 43, N-(2-bromo-4-(1,1,1,3,3,3-hexafluoro-2-methoxypropan-2-yl)-6-(trifluoromethyl)phenyl)-3-(4-chloro-N-(cyclopropylmethyl)benzamido)-2-fluorobenzamide], 139.3 to 140.2 °C; with `N#Cc1ccc(C(=O)N(c2cccc(C(=O)Nc3c(Br)cc(C(F)(C(F)(F)F)C(F)(F)F)cc3C(F)(F)F)c2F)C(C2CC2)C2CC2)cc1` [Compound 32, N-(2-bromo-4-(perfluoropropan-2-yl)-6-(trifluoromethyl)phenyl)-3-(4-cyano-N-(dicyclopropylmethyl)benzamido)-2-fluorobenzamide], 73.5 to 76.1 °C.
